ChEMBL document CHEMBL1147511 (Bioorg Med Chem Lett, 2004)

Legend:
Assay type in all cases: protein-complex assay
[1] = molecular target: Neuronal acetylcholine receptor; alpha4/beta4 (Rattus norvegicus, UniProt P09483+P12392); experiment: Binding affinity towards Nicotinic acetylcholine receptor alpha4-beta4 using [3H]epibatidine
[2] = molecular target: T1, Neuronal acetylcholine receptor; alpha3/beta4 (Rattus norvegicus, UniProt P04757+P12392); experiment: Binding affinity towards Nicotinic acetylcholine receptor alpha3-beta4
[3] = molecular target: Neuronal acetylcholine receptor; alpha4/beta2 (Rattus norvegicus, UniProt P09483+P12390); experiment: Binding affinity towards Nicotinic acetylcholine receptor alpha4-beta2 using [3H]epibatidine
[4] = molecular target: Neuronal acetylcholine receptor; alpha2/beta4 (Rattus norvegicus, UniProt P12389+P12392); experiment: Binding affinity towards Nicotinic acetylcholine receptor alpha2-beta4 using [3H]epibatidine
[5] = molecular target: Neuronal acetylcholine receptor; alpha3/beta2 (Rattus norvegicus, UniProt P04757+P12390); experiment: Binding affinity towards Nicotinic acetylcholine receptor alpha3-beta2 using [3H]epibatidine
[6] = molecular target: Neuronal acetylcholine receptor; alpha2/beta2 (Rattus norvegicus, UniProt P12389+P12390); experiment: Binding affinity towards nicotinic acetylcholine receptor alpha2-beta2 using [3H]epibatidine
[7] = molecular target: T1, Neuronal acetylcholine receptor; alpha3/beta4; experiment: Binding affinity towards Nicotinic acetylcholine receptor alpha3-beta4 using [3H]epibatidine

Sequence of Neuronal acetylcholine receptor; alpha4/beta2 (P09483 whole entry): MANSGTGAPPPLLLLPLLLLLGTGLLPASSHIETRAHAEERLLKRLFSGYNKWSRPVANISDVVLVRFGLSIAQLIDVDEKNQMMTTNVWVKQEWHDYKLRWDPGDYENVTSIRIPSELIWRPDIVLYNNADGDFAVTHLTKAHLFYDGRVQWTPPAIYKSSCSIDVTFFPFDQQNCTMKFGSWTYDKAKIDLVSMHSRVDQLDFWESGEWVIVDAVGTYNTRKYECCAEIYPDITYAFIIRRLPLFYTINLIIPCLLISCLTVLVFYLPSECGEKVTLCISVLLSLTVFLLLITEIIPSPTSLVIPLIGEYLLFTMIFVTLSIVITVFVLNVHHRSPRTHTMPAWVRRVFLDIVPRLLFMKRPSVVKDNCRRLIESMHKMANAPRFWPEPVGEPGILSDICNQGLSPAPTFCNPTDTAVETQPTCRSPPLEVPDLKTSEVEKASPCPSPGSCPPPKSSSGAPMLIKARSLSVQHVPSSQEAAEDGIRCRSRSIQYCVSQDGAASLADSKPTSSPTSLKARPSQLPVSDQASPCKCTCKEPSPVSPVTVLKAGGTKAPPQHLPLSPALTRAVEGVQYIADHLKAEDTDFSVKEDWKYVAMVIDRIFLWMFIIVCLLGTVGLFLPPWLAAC
Sequence of Neuronal acetylcholine receptor; alpha4/beta2 (P12390 whole entry): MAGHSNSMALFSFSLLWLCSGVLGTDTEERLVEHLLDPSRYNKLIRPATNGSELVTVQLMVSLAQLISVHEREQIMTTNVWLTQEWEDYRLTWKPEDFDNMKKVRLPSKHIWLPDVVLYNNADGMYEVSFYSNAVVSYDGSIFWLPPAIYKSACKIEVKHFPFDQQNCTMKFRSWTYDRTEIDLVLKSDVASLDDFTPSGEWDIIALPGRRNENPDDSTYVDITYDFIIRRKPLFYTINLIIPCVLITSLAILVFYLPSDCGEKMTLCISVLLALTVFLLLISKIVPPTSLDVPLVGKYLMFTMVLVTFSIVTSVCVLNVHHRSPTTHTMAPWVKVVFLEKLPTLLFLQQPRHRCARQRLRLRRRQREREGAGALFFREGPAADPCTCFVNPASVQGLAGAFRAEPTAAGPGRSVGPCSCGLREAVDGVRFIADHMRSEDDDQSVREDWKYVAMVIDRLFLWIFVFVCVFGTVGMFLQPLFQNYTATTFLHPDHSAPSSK
Sequence of Neuronal acetylcholine receptor; alpha4/beta4 (P09483 whole entry): as the sequence (P09483 whole entry) above
Sequence of Neuronal acetylcholine receptor; alpha4/beta4 (P12392 whole entry): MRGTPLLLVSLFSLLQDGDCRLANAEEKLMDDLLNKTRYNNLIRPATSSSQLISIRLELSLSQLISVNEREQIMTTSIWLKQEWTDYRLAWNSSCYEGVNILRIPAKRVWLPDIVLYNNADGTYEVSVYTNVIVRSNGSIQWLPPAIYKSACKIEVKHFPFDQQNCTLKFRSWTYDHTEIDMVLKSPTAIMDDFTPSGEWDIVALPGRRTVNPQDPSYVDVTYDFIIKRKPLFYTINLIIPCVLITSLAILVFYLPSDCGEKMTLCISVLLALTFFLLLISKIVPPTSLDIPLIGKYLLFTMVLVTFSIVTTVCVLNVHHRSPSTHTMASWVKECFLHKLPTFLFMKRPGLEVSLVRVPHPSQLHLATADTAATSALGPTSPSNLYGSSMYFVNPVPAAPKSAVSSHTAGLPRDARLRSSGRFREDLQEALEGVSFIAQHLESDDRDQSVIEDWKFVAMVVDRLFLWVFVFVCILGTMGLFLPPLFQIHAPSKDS
Sequence of Neuronal acetylcholine receptor; alpha3/beta2 (P04757 whole entry): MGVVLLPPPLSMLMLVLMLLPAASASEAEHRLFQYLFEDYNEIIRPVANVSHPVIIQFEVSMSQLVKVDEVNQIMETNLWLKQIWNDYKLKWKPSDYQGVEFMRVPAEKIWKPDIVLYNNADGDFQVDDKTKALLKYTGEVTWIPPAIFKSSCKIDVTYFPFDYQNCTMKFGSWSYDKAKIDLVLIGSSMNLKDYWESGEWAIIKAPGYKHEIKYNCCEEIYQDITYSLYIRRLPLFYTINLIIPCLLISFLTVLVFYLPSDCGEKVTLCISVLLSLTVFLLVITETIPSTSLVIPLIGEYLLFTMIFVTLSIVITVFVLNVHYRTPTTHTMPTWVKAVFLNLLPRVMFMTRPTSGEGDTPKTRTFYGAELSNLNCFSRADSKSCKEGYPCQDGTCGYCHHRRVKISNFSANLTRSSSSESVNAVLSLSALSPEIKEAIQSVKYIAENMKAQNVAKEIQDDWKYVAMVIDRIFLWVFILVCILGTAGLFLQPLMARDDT
Sequence of Neuronal acetylcholine receptor; alpha3/beta2 (P12390 whole entry): as the sequence (P12390 whole entry) above
T1 sequence (P04757 whole entry): as the sequence (P04757 whole entry) above
T1 sequence (P12392 whole entry): as the sequence (P12392 whole entry) above
Sequence of Neuronal acetylcholine receptor; alpha2/beta4 (P12389 whole entry): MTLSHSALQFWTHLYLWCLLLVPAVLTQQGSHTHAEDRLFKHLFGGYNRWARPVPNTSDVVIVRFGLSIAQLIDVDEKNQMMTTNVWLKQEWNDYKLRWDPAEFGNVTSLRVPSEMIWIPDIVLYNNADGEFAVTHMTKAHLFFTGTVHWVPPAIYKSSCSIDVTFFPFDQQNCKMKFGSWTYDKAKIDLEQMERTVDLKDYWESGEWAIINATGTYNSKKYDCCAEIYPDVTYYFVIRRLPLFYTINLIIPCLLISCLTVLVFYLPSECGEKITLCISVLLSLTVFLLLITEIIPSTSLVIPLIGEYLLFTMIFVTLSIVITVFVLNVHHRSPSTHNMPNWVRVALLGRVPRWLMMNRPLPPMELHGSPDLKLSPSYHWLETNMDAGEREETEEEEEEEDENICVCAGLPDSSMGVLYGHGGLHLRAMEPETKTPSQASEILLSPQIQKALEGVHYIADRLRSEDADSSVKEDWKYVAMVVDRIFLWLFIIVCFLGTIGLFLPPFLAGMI
Sequence of Neuronal acetylcholine receptor; alpha2/beta4 (P12392 whole entry): as the sequence (P12392 whole entry) above
Sequence of Neuronal acetylcholine receptor; alpha2/beta2 (P12389 whole entry): as the sequence (P12389 whole entry) above
Sequence of Neuronal acetylcholine receptor; alpha2/beta2 (P12390 whole entry): as the sequence (P12390 whole entry) above

Row | Compound | Ki [1] [nM] | Ki [2] [nM] | Ki [3] [nM] | Ki [4] [nM] | Ki [5] [nM] | Ki [6] [nM] | Ki [7] [nM]
1 | Clc1ccc(C2CC3CCC2N3CCN2C3CCC2C(c2ccc(Cl)nc2)C3)cn1 (centres undefined) | 27.7 | 47.8 | 9.33 | 26.8 | 5.44 | 2.08 | –
2 | Clc1ccc(C2CC3CCC2N3CCCCCCN2C3CCC2C(c2ccc(Cl)nc2)C3)cn1 (centres undefined) | 40.4 | – | 9.05 | 47.8 | 6.19 | 3.13 | 82.2
3 | Clc1ccc(C2CC3CCC2N3CCCN2C3CCC2C(c2ccc(Cl)nc2)C3)cn1 (centres undefined) | 54.2 | – | 15.7 | 57.3 | 8.99 | 5.53 | 112
4 | Clc1ccc(C2CC3CCC2N3CCCCCCCCCCN2C3CCC2C(c2ccc(Cl)nc2)C3)cn1 (centres undefined) | 61.3 | – | 21.6 | 71.7 | 12.6 | 7.51 | 138
